Drawing on EP3057950B1, “PHENYL LINKED QUINOLINYL MODULATORS OF ROR-GAMMA-T” (Janssen Pharmaceutica NV, priority 2013, dated 2015), this text covers Kd, IC50 and inhibition for 17 compounds.

Structures are written as SMILES. Values joined by “and” are separate entries in the source; they are usually repeats but may differ in a detail not shown here. Equal entries are not always repeated. Structures can show the parent of a compound that is named as a salt.

Experiment [1] has as its target T1, wild type human RORγt ligand binding domain (RORγt LBD) (Homo sapiens, UniProt P51449).
T1 construct: His-tag (N); TurboTEV protease cleavage site (ENLYFQG) (N); made in house; host or cells: E. coli (pHIS1, modified pET expression vector)
T1 sequence (P51449 269-508 limits assumed): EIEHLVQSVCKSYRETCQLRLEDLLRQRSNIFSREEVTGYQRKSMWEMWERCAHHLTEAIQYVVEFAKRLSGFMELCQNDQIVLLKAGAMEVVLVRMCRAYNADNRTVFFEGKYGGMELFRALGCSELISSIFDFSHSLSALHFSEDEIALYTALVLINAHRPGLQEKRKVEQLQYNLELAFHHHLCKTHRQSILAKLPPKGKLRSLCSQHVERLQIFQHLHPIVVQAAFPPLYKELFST
The experiment is described as follows: RORγt ThermoFluor® Assay (thermal shift, binding affinity). The settings on record: pH 7.0, estimated from concentration response curves. As for the experimental part: This approach is applicable to a wide variety of systems, and rigorous in theoretical interpretation through quantitation of equilibrium binding constants (KD).
The shift in the melting point described as a ΔTm is proportional to the concentration and affinity of the ligand.
Protein and compound solutions are dispensed into black 384-well polypropylene PCR microplates (Abgene) and overlayed with silicone oil (1 µL, Fluka, type DC 200) to prevent evaporation.
Bar-coded assay plates are robotically loaded onto a thermostatically controlled PCR-type thermal block and then heated at a typical ramp-rate of 1 °C/min for all experiments. Fluorescence was measured by continuous illumination with UV light (Hamamatsu LC6) supplied via fiber optic and filtered through a band-pass filter (380-400 nm; >6 OD cutoff). Fluorescence emission of the entire 384-well plate was detected by measuring light intensity using a CCD camera (Sensys, Roper Scientific) filtered to detect 500 ± 25 nm, resulting in simultaneous and independent readings of all 384 wells. Images were collected at each temperature, and the sum of the pixel intensity in a given area of the assay plate was recorded versus temperature. Reference wells contained RORγt without compounds, and the assay conditions were as follows: • 0.065 mg/mL RORγt • 60 µM 1,8-ANS • 100 mM Hepes, pH 7.0 • 10 mM NaCl • 2.5 mM GSH • 0.002% Tween-20
Project compounds were arranged in a pre-dosed mother plate (Greiner Bio-one) wherein compounds are serially diluted in 100% DMSO by 1:2 from a high concentration of 10 mM over 12 columns within a series (column 12 is a reference well containing DMSO, no compound). The compounds were robotically dispensed directly into assay plates (1x = 46 nL) using a Hummingbird capillary liquid handling instrument (Digilab). Following compound dispense, protein and dye in buffer was added to achieve the final assay volume of 3 µL, followed by 1 µL of silicone oil.

The target of experiment [2] is T2, wild type human RORγt LBD (Homo sapiens, UniProt P51449).
T2 construct: expressed in transfected cells; host or cells: HEK293T
T2 sequence (P51449 269-508 limits assumed): T1 sequence (P51449 269-508 limits assumed)
As to the kind of experiment: RORγt Reporter Assay (GAL4-RORγt LBD luciferase in HEK293T cells). To be noted: HEK293T cells; for IC50: compounds for 24 hours, read-out: RORγt reporter Assay, IC50; for inhibition at 6 µM: HEK-293T, read-out: RORγt reporter Assay, % inhibition @ 6 µM, @ 6 µM. Type of experiment: cell-based. From the text:
A reporter assay was used to test functional activity of RORγt modulatory compounds on transcriptional activation driven by the RORγt LBD. Cells used in the assay were co-transfected with two constructs. The first construct, pBIND-RORγt LBD, contained the wild type human RORγt LBD fused to the DNA binding domain of the GAL4 protein. The second construct, pGL4.31 (Promega Cat no. C935A), contained multiple GAL4 responsive DNA elements upstream of firefly luciferase. […] The mutant construct was called pBIND-RORγt-AF2.
The pBIND vector contains the GAL4 DNA Binding Domain (GAL4 DBD) and the renilla luciferase gene under control of the SV40 promoter. Renilla luciferase expression serves as a control for transfection efficiency and cell viability.
The reporter assay was performed by transiently transfecting HEK293T cells with 5 µg of pBIND-RORγt LBD or pBIND-RORγt LBD-AF2 and 5 µg pGL4.31 (Promega Cat no. C935A) using Fugene 6 (Invitrogen Cat no. E2691) at a 1:6 ratio of DNA: Fugene 6 in a T-75 flask in which cells were at least 80% confluent. Twenty four hours after bulk transfection, cells were plated into 96-well plates at 50,000 cells/well in phenol-red free DMEM containing 5% Lipid Reduced FCS and Pen/Strep. Six hours after plating, cells were treated with compounds for 24 hours. Media was removed and cells were lysed with 50 µL 1x Glo Lysis Buffer (Promega). Dual Glo Luciferase Reagent (50 µL/well) was then added and firefly luciferase luminescence was read on an Envision after a ten minute incubation. Finally, Stop and Glo reagent (50 µL/well) was added and renilla luciferase luminescence was read on an Envision instrument after a ten minute incubation. To calculate the effect of compounds on RORγt activity, the ratio of firefly to renilla luciferase was determined and plotted against compound concentration. Agonist compounds increase RORγt-driven luciferase expression, and antagonist or inverse agonist compounds decrease luciferase expression.
In general terms: Reporter assays use an easily measured gene product as a stand-in for the process of interest.

What is called Kd is the equilibrium constant for the complex coming apart. The IC50 is the concentration that inhibits the measured activity by half. As a reminder, the inhibition is the change of the read-out against control, counted positive when it falls.

In the case of `Cc1nc(C)c(C(O)(c2ccc3nc(C#N)c(-c4ccccc4)c(C#N)c3c2)c2cnnn2C)s1` (single isomer, unassigned) [Example 47b, 6-((2,4-Dimethylthiazol-5-yl)(hydroxy)(1-methyl-1H-1,2,3-triazol-5-yl)methyl)-3-phenylquinoline-2,4-dicarbonitrile], the Kd in experiment [1] was 930 nM. Further, in experiment [2], the IC50 is approximately 2000 nM and the inhibition at 6 µM worked out at 80%.
The like results for `COc1nc2ccc(C(O)(c3ncccn3)c3cncn3C)cc2c(Cl)c1-c1ccccc1` (single isomer, unassigned) [Example 60b, (4-Chloro-2-methoxy-3-phenylquinolin-6-yl)(1-methyl-1H-imidazol-5-yl)pyrimidin-2-ylmethanol] were, in that order, 900 nM, approximately 2000 nM and 87%.
The like results for `Cn1cncc1C(O)(c1ccc(Cl)cc1)c1ccc2nc(Cl)c(-c3ccccn3)c(Cl)c2c1` (stereo not drawn) [Example 5, (4-Chlorophenyl)(2,4-dichloro-3-(pyridin-2-yl)quinolin-6-yl)(1-methyl-1H-imidazol-5-yl)methanol•TFA] were, in that order, 620 nM, 1700 nM and 87%.
The like results for `Cn1cncc1C(O)(c1ccc(Cl)cc1)c1ccc2nc(Cl)c(-c3cccnc3)c(Cl)c2c1` (stereo not drawn) [Example 6, (4-Chlorophenyl)(2,4-dichloro-3-(pyridin-3-yl)quinolin-6-yl)(0-methyl-1H-imidazol-5-yl)methanol•TFA] were, in that order, 940 nM, 1900 nM and 92%.
In the case of `COc1nc2ccc(C(O)(c3ccc(C(F)(F)F)nc3)c3cncn3C)cc2c(Cl)c1-c1cnn(C)c1` (stereo not drawn) [Example 8, [4-Chloro-2-methoxy-3-(1-methyl-1H-pyrazol-4-yl)quinolin-6-yl](1-methyl-1H-imidazol-5-yl)[6-(trifluoromethyl)pyridin-3-yl]methanol•TFA], in experiment [1], the Kd was 270 nM. Further, in experiment [2], the IC50 came out at 890 nM and the inhibition at 6 µM was determined as 87%.
The matching figures for `COc1nc2ccc(C(O)(c3ccc(C(F)(F)F)nc3)c3cncn3C)cc2c(Cl)c1-c1cccc(S(C)(=O)=O)c1` (stereo not drawn) [Example 11, {4-Chloro-2-methoxy-3-[3-(methylsuffonyl)phenyl]quinolin-6-yl)(1-methyl-1H-imidazol-5-yl)[6-(trifluoromethyl)pyridin-3-yl]methanol•TFA]: 640 nM, more than 6000 nM and 32%.
The like results for `COc1nc2ccc(C(O)(c3ccc(C(F)(F)F)nc3)c3cncn3C)cc2c(Cl)c1-c1cccc(NS(C)(=O)=O)c1` (stereo not drawn) [Example 12] were, in that order, 650 nM, approximately 2000 nM and 90%.
The like results for `COc1nc2ccc(C(O)(c3ccc(C(F)(F)F)nc3)c3cncn3C)cc2c(Cl)c1-c1cncc(S(C)(=O)=O)c1` (stereo not drawn) [Example 13, {4-Chloro-2-methoxy-3-[5-(methylsuflonyl)pyridin-3-yl]quinolin-6-yl)(1-methyl-1H-imidazol-5-yl)[6-(trifluoromethyl)pyridin-3-yl]methanol•TFA] were, in that order, 2000 nM, more than 6000 nM and -52%.
As to `COc1nc2ccc(C(O)(c3ccc(C(F)(F)F)nc3)c3cncn3C)cc2c(Cl)c1-c1ccc(Cl)s1` (stereo not drawn) [Example 14a, [4-Chloro-3-(5-chlorothiophen-2-yl)-2-methoxyquinofin-6-yl](1-methyl-1H-imidazol-5-yl)[6-(trifluoromethyl)pyridin-3-yl]methanol•TFA], the Kd in experiment [1] was 6.7 nM. In experiment [2], the IC50 was 1100 nM and the inhibition at 6 µM was 55%.
The matching figures for `COc1ncc(-c2c(OC)nc3ccc(C(O)(c4ccc(C(F)(F)F)nc4)c4cncn4C)cc3c2Cl)cn1` (stereo not drawn) [Example 15, [4-Chloro-2-methoxy-3-(2-methoxypyrimidin-5-yl)quinolin-6-yl](1-methyl-1H-imidazol-5-yl)[6-(trifluoromethyl)pyridin-3-yl]methanol•TFA]: 21 nM, more than 6000 nM and -29%.
The matching figures for `COc1nc2ccc(C(O)(c3ccc(C(F)(F)F)nc3)c3cncn3C)cc2c(Cl)c1-c1ccc(NS(C)(=O)=O)cc1` (stereo not drawn) [Example 17, N-[4-(4-Chloro-6-{hydroxy(1-methyl-1H-imidazol-5-yl)[6-(trifluoromethyl)pyridin-3-yl]methyl}-2-methoxyquinolin-3-yl)phenyl]methamesulfonamide•TFA]: 26 nM, 530 nM and 87%.
As to `Cn1cncc1C(O)(c1ccc(C#N)cc1)c1ccc2nc(C(F)(F)F)c(-c3ccccc3)c(C#N)c2c1` (stereo not drawn) [Example 28, 6-((4-Cyanophenyl)(hydroxy)(1-methyl-1H-imidazol-5-yl)methyl)-3-phenyl-2-(trifluoromethyl)quinoline-4-carbonitrile•TFA], the Kd in experiment [1] was 46 nM. Moreover, in experiment [2], the IC50 is 24 nM and ~40 nM; the inhibition at 6 µM stood at 96%.
Turning to `CC(=O)N1CCC(C(O)(c2cccnc2)c2ccc3nc(C(F)(F)F)c(-c4ccccc4)c(Cl)c3c2)CC1` (stereo not drawn) [Example 29, 1-(4-((4-Chloro-3-phenyl-2-(trifluoromethyl)quinolin-6-yl)(hydroxy)(pyridin-3-yl)methyl)piperidin-1-yl)ethanone•TFA], in experiment [1], the Kd was 26 nM. In experiment [2], the IC50 turned out to be 85 nM and the inhibition at 6 µM was 97%.
In the case of `COc1c(-c2ccccc2)c(C(F)(F)F)nc2ccc(C(O)(c3ccc(Cl)cc3)c3cncn3C)cc12` (stereo not drawn) [Example 33a, (4-Chlorophenyl)(4-methoxy-3-phenyl-2-(trifluoromethyl)quinolin-6-yl)(1-methyl-1H-imidazol-5-yl)methanol•TFA], in experiment [1], the Kd was 160 nM. Further, in experiment [2], the IC50 turned out to be 650 nM and the inhibition at 6 µM is 98%.
The matching figures for `COc1nc2ccc(C(O)(c3sc(C)nc3C)c3cnnn3C)cc2c(Cl)c1-c1ccccc1` (stereo not drawn) [Example 35, (4-Chloro-2-methoxy-3-phenylquinolin-6-yl)(2,4-dimethylthiazol-5-yl)(1-methyl-1H-1,2,3-triazol-5-yl)methnol•TFA]: 18 nM, 160 nM and 101%.
For the compound `COc1c(-c2ccccc2)c(Cl)nc2ccc(C(O)(c3sc(C)nc3C)c3cnnn3C)cc12` (stereo not drawn) [Example 36], the Kd in experiment [1] is 0.89 nM. In experiment [2], the IC50 was 11 nM and ~40 nM; the inhibition at 6 µM was 97%.
For the compound `COc1nc2ccc(C(O)(c3sc(C)nc3C)c3cncn3C)cc2c(Cl)c1-c1ccccc1` (stereo not drawn) [Example 37, (4-Chloro-2-methoxy-3-phenylquinolin-6-yl)(2,4-dimethylthiazol-5-yl)(1-methyl-1H-imidazol-5-yl)methanol•TFA], the Kd in experiment [1] was 7.2 nM. Further, in experiment [2], the IC50 worked out at 260 nM and the inhibition at 6 µM worked out at 90%.
